Publication PMC11258331 (Scientific Reports, 2024)
Marks after values point to notes of the source that are not given here.

Legend:
[1] = system: platelet aggregation induced by adenosine diphosphate (ADP); test: ADP (20 µM)-induced platelet aggregation, light transmission aggregometry; format: in vivo, human; conditions: drug alone (Treatment E or H)
Experimental: (§1) PD assessments were performed on Days 1 (≤ 24 h) and 5 (≤ 72 h) of each period (Supplementary Table 8); assessments included aPTT[18], FXIc[18], and bleeding time (assessed according to the PPD® Laboratories [Austin, TX] procedure where a blood pressure cuff, situated above the incision site, provided pressure at 40 mmHg and blood from the incision was wicked with filter paper every 30 s until cessation to record bleeding time). In addition, AA (1 mM), ADP) (20 µM)-, and collagen (5 μg/ml)-induced platelet aggregation assays were performed using light transmission aggregometry (PPD® Laboratories) and performed on Days 1 and 5 (≤ 24 h) for only Period 1.

[2] = system: platelet aggregation induced by collagen; test: Collagen (5 μg/ml)-induced platelet aggregation, light transmission aggregometry; format: in vivo, human; conditions: drug alone (Treatment E or H)
Experimental: as §1

[3] = system: arachidonic acid (AA)-induced platelet aggregation; test: AA (1 mM)-induced platelet aggregation, light transmission aggregometry; format: in vivo, human; conditions: drug alone (Treatment E or H)
Experimental: as §1

healthy participants = test: Adverse events and bleeding-related AEs by treatment, phase I DDI study;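 further: counts from medical review of adverse event and bleeding-related adverse event reports, collected at selected times across the dosing interval, single US site, randomised 1:1:1 to one study part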
Experimental: Participants underwent screening evaluations to determine eligibility within 35 days of study drug administration, and eligible participants were randomly assigned 1:1:1 to a single part of the study.
Safety assessments were performed at selected times throughout the dosing interval (Supplementary Table 7). The assessments were based on medical review of AE and bleeding-related AE reports, and the results of vital sign measurements, ECG measurements, physical examinations, and clinical laboratory tests.

[4] = Plasma pharmacokinetics (LC-MS/MS, noncompartmental; GMR by linear mixed-effects model); conditions: for Increase of AUC(TAU) / Increase of Cmax: Treatment I (with milvexian) vs Treatment H (aspirin alone); for Cmax / Tmax / AUC / half-life: human, plasma, oral; for AUC: AUC(TAU); for half-life: T1/2, arithmetic mean [n] (SD);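 on all read-outs here: participants at one US clinical research site, randomized 1:1:1 to a single study part, with 90% CIs from a mixed-effects model on log-transformed PK parameters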
Experimental: (§2) The study (ClinicalTrials.gov Identifier: NCT03698513) was conducted at 1 clinical research center in the United States. […] Participants underwent screening evaluations to determine eligibility within 35 days of study drug administration, and eligible participants were randomly assigned 1:1:1 to a single part of the study.
(§3) All statistical analyses and calculations were performed using SAS® software (SAS Institute, Inc., Cary, North Carolina; version 9.3). All safety and plasma PK/PD data were summarized using descriptive statistics. Descriptive summaries were presented for continuous variables using number of subjects (N), mean, SD; median, minimum, and maximum. […] CIs were constructed using a linear mixed-effects model with treatment as a fixed effect and measurements within participants as repeated measures fitted to the log-transformed PK parameters.

[5] = in vivo
Experimental: as §2, §3

[6] = geometric mean (90% CI), Day 1, Treatment A (milvexian + aspirin + clopidogrel), Part 1
[7] = geometric mean (90% CI), Day 1, Treatment C (placebo + aspirin + clopidogrel), Part 1
[8] = geometric mean (90% CI), Day 1, Treatment H (placebo + aspirin), Part 3
[9] = geometric mean (90% CI), Day 1, Treatment I (milvexian + aspirin), Part 3
[10] = geometric mean [n] (90% CI), Day 5, Treatment C (placebo + aspirin + clopidogrel), Part 1
[11] = geometric mean [n] (90% CI), Day 5, Treatment H (placebo + aspirin), Part 3
[12] = median (range), Day 1, Treatment A (milvexian + aspirin + clopidogrel), Part 1
[13] = median (range), Day 1, Treatment C (placebo + aspirin + clopidogrel), Part 1
[14] = median (range), Day 1, Treatment H (placebo + aspirin), Part 3
[15] = median (range), Day 1, Treatment I (milvexian + aspirin), Part 3
[16] = median [n] (range), Day 5, Treatment C (placebo + aspirin + clopidogrel), Part 1
[17] = median [n] (range), Day 5, Treatment H (placebo + aspirin), Part 3

With `CC(=O)Oc1ccccc1C(=O)O` [Aspirin, acetylsalicylic acid, reference compound] as the compound, how does the “Inhibition of ADP-induced aggregation compared with baseline” value [1] read?
The value was ~ 15%.

What about the “Inhibition of collagen-induced aggregation compared with baseline” value [2] of the same compound?
The value was ~ 25%.

And the “Inhibition of AA-induced aggregation compared with baseline” value [3]?
The value was ~ 95%.

And the Anal fissure hemorrhage (healthy participants; Part 3 (Treatments G-I))?
Its Anal fissure hemorrhage is 0 n (%).

And the Contusion (healthy participants; Part 3 (Treatments G-I))?
Its Contusion is 0 n (%).

What about the Deaths (healthy participants; Part 3 (Treatments G-I)) of the same compound?
Its Deaths is 0 n (%).

What about the “Discontinuations due to AEs” value (healthy participants; Part 3 (Treatments G-I)) of the same compound?
Its value is 0 n (%).

What about the Epistaxis (healthy participants; Part 3 (Treatments G-I)) of the same compound?
The Epistaxis was 1 (2.6)^‡‡ n (%).

And the Gingival bleeding (healthy participants; Part 3 (Treatments G-I))?
The Gingival bleeding was 0 n (%).

And the “Serious AEs” value (healthy participants; Part 3 (Treatments G-I))?
The value was 0 n (%).

And the “Total participants with an AE” value (healthy participants; Part 3 (Treatments G-I))?
The value was 9 (23.7) n (%).

And the “Total participants with bleeding event(s)” value (healthy participants; Part 3 (Treatments G-I))?
Its value is 1 (2.6) n (%).

What about the “Vessel puncture site bruise” value (healthy participants; Part 3 (Treatments G-I)) of the same compound?
Its value is 0 n (%).

And the “Events of epistaxis reported by a participant” value (healthy participants; bleeding AE)?
The value was 1 events.

What about the “Percentage of participants reporting AEs” value (healthy participants; by treatment, all parts) of the same compound?
Its value is 23.7%.

What about the “Increase of AUC(TAU)” value ([4]; Day 1) of the same compound?
Its value is 24%.

And the “Increase of Cmax” value ([4]; Day 1)?
Its value is 40%.

And the “Increase of AUC(TAU)” value ([4]; Day 5)?
Its value is 19%.

What about the “Increase of Cmax” value ([4]; Day 5) of the same compound?
Its value is 33%.

And the Cmax [4, 6]?
Its Cmax is 3050 ng/mL.

What about the Cmax [4, 7] of the same compound?
Its Cmax is 2970 ng/mL.

What about the Cmax [4, 8] of the same compound?
Its Cmax is 2450 ng/mL.

And the Cmax [4, 9]?
The Cmax was 3440 ng/mL.

What about the Cmax [4, 10] of the same compound?
Its Cmax is 2890 ng/mL.

What about the Cmax [4, 11] of the same compound?
The Cmax was 2670 ng/mL.

And the Tmax [4, 12]?
The Tmax was 1 h.

What about the Tmax [4, 13] of the same compound?
Its Tmax is 1 h.

What about the Tmax [4, 14] of the same compound?
Its Tmax is 0.5 h.

What about the Tmax [4, 15] of the same compound?
The Tmax was 0.5 h.

What about the Tmax [4, 16] of the same compound?
The Tmax was 0.5 h.

And the Tmax [4, 17]?
The Tmax was 0.508 h.

For `O=C(O)[C@H](c1ccccc1Cl)N1CCc2sccc2C1` [Clopidogrel acid], which “Mean T1/2” value ([5]; human) is on record?
The value was “approximately 8 h”.

And the “Reduction of Cmax” value [5]?
Its value is 14%.

With `O=C(O)c1ccccc1O` [Salicylic acid, salicylic acid] as the compound, how does the AUC ([4]; geometric mean [n] (90% CI), Day 1, Treatment A (milvexian + aspirin + clopidogrel), Part 1) read?
The AUC was 92700 ng·h/mL.

What about the AUC ([4]; geometric mean [n] (90% CI), Day 1, Treatment C (placebo + aspirin + clopidogrel), Part 1) of the same compound?
Its AUC is 93500 ng·h/mL.

What about the AUC ([4]; geometric mean [n] (90% CI), Day 1, Treatment H (placebo + aspirin), Part 3) of the same compound?
The AUC was 93300 ng·h/mL.

What about the AUC ([4]; geometric mean [n] (90% CI), Day 1, Treatment I (milvexian + aspirin), Part 3) of the same compound?
The AUC was 93600 ng·h/mL.

What about the AUC [4, 10] of the same compound?
Its AUC is 92000 ng·h/mL.

What about the AUC [4, 11] of the same compound?
Its AUC is 92500 ng·h/mL.

And the Cmax [4, 6]?
The Cmax was 17600 ng/mL.

And the Cmax [4, 7]?
Its Cmax is 18100 ng/mL.

And the Cmax [4, 8]?
Its Cmax is 16500 ng/mL.

And the Cmax [4, 9]?
The Cmax was 16300 ng/mL.

And the Cmax [4, 10]?
The Cmax was 17300 ng/mL.

What about the Cmax [4, 11] of the same compound?
The Cmax was 16500 ng/mL.

What about the half-life ([4]; Day 1, Treatment A (milvexian + aspirin + clopidogrel), Part 1) of the same compound?
The half-life was 2.21 h.

And the half-life ([4]; Day 1, Treatment C (placebo + aspirin + clopidogrel), Part 1)?
The half-life was 2.25 h.

And the half-life ([4]; Day 1, Treatment H (placebo + aspirin), Part 3)?
Its half-life is 2.4 h.

What about the half-life ([4]; Day 1, Treatment I (milvexian + aspirin), Part 3) of the same compound?
The half-life was 2.39 h.

And the half-life ([4]; Day 5, Treatment C (placebo + aspirin + clopidogrel), Part 1)?
Its half-life is 2.23 h.

What about the half-life ([4]; Day 5, Treatment H (placebo + aspirin), Part 3) of the same compound?
Its half-life is 2.39 h.

What about the Tmax [4, 12] of the same compound?
The Tmax was 2 h.

And the Tmax [4, 13]?
The Tmax was 2 h.

And the Tmax [4, 14]?
The Tmax was 2.03 h.

And the Tmax [4, 15]?
Its Tmax is 2 h.

What about the Tmax [4, 16] of the same compound?
Its Tmax is 2.02 h.

What about the Tmax [4, 17] of the same compound?
Its Tmax is 3 h.
